Measurements as given in US11629143B2, “HipK4 inhibitors and uses thereof” (Vibliome Therapeutics, LLC, priority 2020, dated 2023).

How the values were obtained:
Assay in all cases: Kinase panel (mobility shift)
Format in all cases: biochemical
AXL = target: T1, AXL (Homo sapiens, UniProt P30530)
T1 sequence (P30530 26-894): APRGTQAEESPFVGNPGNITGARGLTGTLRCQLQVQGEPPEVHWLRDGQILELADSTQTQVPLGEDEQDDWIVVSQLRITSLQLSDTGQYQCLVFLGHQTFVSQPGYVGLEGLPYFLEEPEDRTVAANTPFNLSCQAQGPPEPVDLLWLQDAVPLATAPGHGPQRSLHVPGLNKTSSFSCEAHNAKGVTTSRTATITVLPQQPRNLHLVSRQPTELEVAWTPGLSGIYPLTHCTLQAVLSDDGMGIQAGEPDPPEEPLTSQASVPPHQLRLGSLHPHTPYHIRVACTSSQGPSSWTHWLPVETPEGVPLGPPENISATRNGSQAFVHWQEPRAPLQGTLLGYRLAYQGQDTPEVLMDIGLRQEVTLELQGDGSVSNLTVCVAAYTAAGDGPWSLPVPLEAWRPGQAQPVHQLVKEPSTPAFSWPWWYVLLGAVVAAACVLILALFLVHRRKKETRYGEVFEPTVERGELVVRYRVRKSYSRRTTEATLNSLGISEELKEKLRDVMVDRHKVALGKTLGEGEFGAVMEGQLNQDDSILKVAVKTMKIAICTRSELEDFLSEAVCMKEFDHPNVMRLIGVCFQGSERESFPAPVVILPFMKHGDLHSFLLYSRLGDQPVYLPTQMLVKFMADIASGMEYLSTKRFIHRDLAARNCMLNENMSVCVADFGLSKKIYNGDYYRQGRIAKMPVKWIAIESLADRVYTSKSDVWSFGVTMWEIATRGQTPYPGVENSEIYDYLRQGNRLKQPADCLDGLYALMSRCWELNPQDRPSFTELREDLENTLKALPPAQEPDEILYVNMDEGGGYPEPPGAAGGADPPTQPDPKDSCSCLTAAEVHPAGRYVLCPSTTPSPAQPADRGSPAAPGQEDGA
Procedure, shortened: (§1)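 Tested at a single 5 um concentration within a 299-kinase panel, compounds were scored by electrophoretic mobility shift of a fluorescent substrate into product. Categories: A, 95% or greater; B, 90%-94%; C, 80%-89%.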

LOK = LOK (Homo sapiens, UniProt O94804); conditions: at 5 um
Procedure, shortened: as §1

TAOK3 = target: T2, TAOK3 (Homo sapiens, UniProt Q9H2K8)
T2 sequence (Q9H2K8 1-898): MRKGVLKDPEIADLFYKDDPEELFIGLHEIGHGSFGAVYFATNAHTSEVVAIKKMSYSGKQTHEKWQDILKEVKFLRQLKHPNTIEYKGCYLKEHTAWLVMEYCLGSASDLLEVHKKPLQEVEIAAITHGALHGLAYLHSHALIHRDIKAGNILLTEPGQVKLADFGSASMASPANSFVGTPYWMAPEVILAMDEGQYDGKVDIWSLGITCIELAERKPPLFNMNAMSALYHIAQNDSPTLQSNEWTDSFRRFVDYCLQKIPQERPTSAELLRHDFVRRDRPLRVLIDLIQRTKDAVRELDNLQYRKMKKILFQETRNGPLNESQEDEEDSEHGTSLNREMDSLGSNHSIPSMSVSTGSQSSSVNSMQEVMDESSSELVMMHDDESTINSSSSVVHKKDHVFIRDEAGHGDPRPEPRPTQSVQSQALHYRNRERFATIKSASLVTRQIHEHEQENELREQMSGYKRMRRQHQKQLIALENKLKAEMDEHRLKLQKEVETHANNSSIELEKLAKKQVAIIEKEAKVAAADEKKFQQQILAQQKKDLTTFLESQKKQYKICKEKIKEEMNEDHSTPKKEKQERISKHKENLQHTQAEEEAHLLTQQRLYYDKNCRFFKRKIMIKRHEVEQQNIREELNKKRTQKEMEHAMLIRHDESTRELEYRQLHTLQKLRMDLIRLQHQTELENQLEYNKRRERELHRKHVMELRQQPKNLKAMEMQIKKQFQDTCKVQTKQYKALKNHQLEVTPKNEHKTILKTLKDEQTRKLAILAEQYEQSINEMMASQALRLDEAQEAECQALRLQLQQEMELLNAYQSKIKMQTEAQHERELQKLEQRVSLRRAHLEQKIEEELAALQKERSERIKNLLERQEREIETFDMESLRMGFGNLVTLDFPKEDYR
Procedure, shortened: as §1

KIT = KIT (Homo sapiens, UniProt P10721)
Procedure, shortened: as §1

DDR2 = target: T3, DDR2 (Homo sapiens, UniProt Q16832)
T3 sequence (Q16832 22-855): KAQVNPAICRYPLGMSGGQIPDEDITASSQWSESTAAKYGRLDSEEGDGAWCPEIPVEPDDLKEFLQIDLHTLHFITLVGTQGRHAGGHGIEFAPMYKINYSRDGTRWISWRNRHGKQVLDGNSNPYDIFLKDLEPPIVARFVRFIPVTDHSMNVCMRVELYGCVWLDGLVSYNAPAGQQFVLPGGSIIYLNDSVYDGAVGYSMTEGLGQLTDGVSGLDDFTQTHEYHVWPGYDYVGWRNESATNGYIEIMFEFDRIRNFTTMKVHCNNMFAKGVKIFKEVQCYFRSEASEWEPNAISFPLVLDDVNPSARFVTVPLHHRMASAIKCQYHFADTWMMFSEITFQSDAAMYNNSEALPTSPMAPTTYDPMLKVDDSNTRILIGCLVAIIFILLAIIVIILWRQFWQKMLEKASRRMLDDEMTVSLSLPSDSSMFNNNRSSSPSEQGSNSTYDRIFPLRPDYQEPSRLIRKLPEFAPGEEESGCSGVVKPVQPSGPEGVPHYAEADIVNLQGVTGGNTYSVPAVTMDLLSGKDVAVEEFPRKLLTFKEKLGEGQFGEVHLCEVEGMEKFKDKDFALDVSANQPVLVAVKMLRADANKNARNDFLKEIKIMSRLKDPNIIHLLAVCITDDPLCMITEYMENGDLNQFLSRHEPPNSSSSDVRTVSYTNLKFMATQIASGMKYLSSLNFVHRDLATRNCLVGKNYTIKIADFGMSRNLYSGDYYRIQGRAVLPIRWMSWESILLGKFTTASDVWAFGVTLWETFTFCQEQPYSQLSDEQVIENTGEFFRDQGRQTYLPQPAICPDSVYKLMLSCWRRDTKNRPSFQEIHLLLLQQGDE
Procedure, shortened: as §1

EPH-A4 = EPH-A4 (Homo sapiens, UniProt P54764)
Procedure, shortened: as §1

KIT, sequence (P10721 26-976, species assumed): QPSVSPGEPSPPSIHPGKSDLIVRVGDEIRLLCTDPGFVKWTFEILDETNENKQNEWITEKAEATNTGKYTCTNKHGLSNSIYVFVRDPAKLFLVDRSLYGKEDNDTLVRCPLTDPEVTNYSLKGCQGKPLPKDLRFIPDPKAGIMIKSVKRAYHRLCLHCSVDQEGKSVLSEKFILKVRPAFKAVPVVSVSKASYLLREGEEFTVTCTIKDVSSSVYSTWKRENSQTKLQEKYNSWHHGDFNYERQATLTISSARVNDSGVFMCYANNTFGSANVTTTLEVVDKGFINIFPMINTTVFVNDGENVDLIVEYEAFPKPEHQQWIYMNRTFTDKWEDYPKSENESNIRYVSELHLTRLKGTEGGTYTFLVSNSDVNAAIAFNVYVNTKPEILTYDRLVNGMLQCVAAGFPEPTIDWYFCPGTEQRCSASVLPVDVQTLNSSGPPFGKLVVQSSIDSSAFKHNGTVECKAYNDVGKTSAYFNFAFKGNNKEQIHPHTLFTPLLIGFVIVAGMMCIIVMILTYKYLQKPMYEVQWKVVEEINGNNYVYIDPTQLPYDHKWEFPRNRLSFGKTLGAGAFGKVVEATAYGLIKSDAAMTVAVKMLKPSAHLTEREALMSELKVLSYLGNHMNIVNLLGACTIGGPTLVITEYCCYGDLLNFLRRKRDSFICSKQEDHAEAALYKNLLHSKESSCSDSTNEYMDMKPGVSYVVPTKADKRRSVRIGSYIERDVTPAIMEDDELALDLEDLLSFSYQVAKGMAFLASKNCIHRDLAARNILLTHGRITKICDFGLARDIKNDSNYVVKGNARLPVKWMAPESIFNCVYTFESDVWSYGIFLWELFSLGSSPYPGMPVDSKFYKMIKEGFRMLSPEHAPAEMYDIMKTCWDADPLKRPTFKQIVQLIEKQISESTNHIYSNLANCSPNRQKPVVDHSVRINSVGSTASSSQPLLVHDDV
EPH-A4, sequence (P54764 20-986, species assumed): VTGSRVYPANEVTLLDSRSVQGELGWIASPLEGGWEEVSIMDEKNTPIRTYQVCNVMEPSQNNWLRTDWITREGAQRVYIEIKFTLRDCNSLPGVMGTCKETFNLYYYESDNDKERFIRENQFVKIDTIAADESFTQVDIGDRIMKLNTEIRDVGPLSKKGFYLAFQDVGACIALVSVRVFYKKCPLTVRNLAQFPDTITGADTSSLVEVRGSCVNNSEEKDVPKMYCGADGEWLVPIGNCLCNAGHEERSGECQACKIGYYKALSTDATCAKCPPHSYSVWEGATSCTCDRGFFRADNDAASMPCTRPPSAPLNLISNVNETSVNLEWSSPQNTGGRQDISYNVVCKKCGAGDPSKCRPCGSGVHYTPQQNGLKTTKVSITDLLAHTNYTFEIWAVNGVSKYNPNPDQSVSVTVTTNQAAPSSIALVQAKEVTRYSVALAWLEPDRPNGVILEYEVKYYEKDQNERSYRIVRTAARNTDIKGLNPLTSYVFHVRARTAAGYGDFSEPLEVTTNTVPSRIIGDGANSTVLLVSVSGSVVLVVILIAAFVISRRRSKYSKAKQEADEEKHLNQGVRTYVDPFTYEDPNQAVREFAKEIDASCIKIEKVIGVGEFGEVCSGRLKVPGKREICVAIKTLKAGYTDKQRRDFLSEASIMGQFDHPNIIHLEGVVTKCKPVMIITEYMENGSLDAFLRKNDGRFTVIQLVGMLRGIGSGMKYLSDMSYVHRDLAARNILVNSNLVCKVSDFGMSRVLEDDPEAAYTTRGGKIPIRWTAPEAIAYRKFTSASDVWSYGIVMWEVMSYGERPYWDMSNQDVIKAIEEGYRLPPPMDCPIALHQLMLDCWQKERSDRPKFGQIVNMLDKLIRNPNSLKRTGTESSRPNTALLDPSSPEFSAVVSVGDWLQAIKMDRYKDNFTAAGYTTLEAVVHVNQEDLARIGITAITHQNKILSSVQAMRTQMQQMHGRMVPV
LOK, sequence (O94804 whole entry, species assumed): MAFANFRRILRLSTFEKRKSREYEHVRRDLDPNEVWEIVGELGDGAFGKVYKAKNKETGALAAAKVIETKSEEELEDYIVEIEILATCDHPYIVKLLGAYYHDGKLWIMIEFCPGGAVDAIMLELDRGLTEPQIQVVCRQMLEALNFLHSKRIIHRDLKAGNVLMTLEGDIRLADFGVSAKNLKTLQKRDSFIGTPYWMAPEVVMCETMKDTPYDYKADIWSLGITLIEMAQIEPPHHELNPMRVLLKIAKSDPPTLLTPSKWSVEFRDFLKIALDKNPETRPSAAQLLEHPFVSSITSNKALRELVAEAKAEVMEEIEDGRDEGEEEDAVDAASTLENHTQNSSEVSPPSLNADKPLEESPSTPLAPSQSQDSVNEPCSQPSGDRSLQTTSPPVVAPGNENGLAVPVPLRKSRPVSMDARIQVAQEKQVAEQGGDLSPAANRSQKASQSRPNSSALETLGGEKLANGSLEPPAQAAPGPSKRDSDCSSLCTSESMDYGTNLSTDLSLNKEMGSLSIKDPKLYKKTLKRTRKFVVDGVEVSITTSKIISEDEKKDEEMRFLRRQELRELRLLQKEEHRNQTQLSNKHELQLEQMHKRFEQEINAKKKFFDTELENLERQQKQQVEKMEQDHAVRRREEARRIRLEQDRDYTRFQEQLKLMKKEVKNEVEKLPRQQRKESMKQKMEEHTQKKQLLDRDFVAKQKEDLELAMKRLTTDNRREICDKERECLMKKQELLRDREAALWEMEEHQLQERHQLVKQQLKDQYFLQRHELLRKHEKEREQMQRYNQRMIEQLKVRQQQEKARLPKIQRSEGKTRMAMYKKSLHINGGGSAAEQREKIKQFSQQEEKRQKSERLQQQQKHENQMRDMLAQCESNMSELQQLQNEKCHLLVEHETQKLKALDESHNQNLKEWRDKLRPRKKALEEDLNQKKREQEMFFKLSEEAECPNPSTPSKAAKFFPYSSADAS

| inhibition at 5 µM (AXL) | inhibition of kinase activity, LOK (LOK) | inhibition at 5 µM (TAOK3) | inhibition at 5 µM (KIT) | inhibition at 5 µM (DDR2) | inhibition at 5 µM (EPH-A4) | Structure (SMILES) |
| --- | --- | --- | --- | --- | --- | --- |
| 50 to 79% | A (A=95% or greater at 5 um) | 80 to 89% | 50 to 79% | 50 to 79% | 90 to 94% | CNC(=O)c1cc(Oc2ccc(NC(=O)c3nc(SC(C)C)oc3-c3ccc(F)cc3)cc2F)ccn1 [Compound 34] |
| < 50% | D (category D for 50-79) | 50 to 79% | 50 to 79% | 80 to 89% | < 50% | CNC(=O)c1cc(Oc2ccc(NC(=O)c3nc(SC)oc3-c3ccc(F)c(F)c3)cc2)ccn1 [Compound 4] |
| 80 to 89% | C (C=80%-89% at 5 um) | < 50% | < 50% | 50 to 79% | < 50% | CNC(=O)c1cc(Oc2ccc(NC(=O)c3nc(OCC(F)(F)F)oc3-c3ccc(F)cc3)cc2F)ccn1 [Compound 38] |
| 50 to 79% | D (category D for 50-79) | 50 to 79% | < 50% | 50 to 79% | 50 to 79% | CSc1nc(C(=O)Nc2ccc(Oc3ccnc(C(=O)NC4CNC4)c3)c(F)c2)c(-c2ccc(F)cc2)o1 [Compound 29] |

The next lines start with the compound.

| Structure (SMILES) | inhibition at 5 µM (AXL) | inhibition of kinase activity, LOK (LOK) | inhibition at 5 µM (TAOK3) | inhibition at 5 µM (KIT) | inhibition at 5 µM (DDR2) | inhibition at 5 µM (EPH-A4) |
| --- | --- | --- | --- | --- | --- | --- |
| CNC(=O)c1cc(Oc2ccc(NC(=O)c3nc(NC)sc3-c3ccc(F)cc3C)cc2F)ccn1 [Compound 23] | 50 to 79% | D (category D for 50-79) | 50 to 79% | 50 to 79% | 50 to 79% | 50 to 79% |
| CNC(=O)c1cc(Oc2ccc(NC(=O)c3nc(SC)oc3-c3ccc(F)cc3F)cc2)ccn1 [Compound 6] | 80 to 89% | E (category E is less than 50%) | < 50% | 80 to 89% | 80 to 89% | < 50% |
| CSc1nc(C(=O)Nc2ccc(Oc3ccnc(C(=O)NC4CNC4)c3)c(F)c2)c(-c2ccc(F)s2)o1 [Compound 27] | < 50% | E (category E is less than 50%) | < 50% | < 50% | < 50% | < 50% |
| CSc1nc(C(=O)Nc2ccc(Oc3cc4cnn(C)c4cc3Br)c(F)c2)c(-c2ccc(F)cc2)o1 [Compound 2] | < 50% | D (category D for 50-79) | < 50% | < 50% | 50 to 79% | 50 to 79% |
| CSc1nc(C(=O)Nc2ccc(Oc3ccnc(N)c3Cl)c(F)c2)c(-c2ccc(F)cc2)o1 [Compound 1] | < 50% | E (category E is less than 50%) | < 50% | < 50% | 50 to 79% | < 50% |
| CSc1nc(C(=O)Nc2ccc(Oc3ccnc(C(=O)NC4COC4)c3)c(F)c2)c(-c2ccc(F)c(F)c2)o1 [Compound 37] | < 50% | E (category E is less than 50%) | < 50% | < 50% | < 50% | < 50% |
| [2H]C([2H])([2H])NC(=O)c1cc(Oc2ccc(NC(=O)c3nc(SC)oc3-c3ccc(F)c(F)c3)cc2F)ccn1 [Compound 33] | < 50% | C (C=80%-89% at 5 um) | 50 to 79% | < 50% | 80 to 89% | < 50% |
| [2H]C([2H])([2H])NC(=O)c1cc(Oc2ccc(NC(=O)c3nc(SC)oc3-c3ccc(F)s3)cc2F)ccn1 [Compound 35] | < 50% | D (category D for 50-79) | < 50% | < 50% | 50 to 79% | < 50% |
